# Results as given in US20260167623A1 (NIKANG THERAPEUTICS, INC., priority 2022, published 2026).
# Key:
# CDK2 [1] = molecular target: T1, CDK2 (Homo sapiens, UniProt P24941); assay: High-throughput HTRF measurement of cellular endogenous CDK2 level (degradation, DC50/Dmax) in OVCAR3 cells, 6 h; format: cell-based; conditions: 6 h compound treatment, HTRF total CDK2, read-out: DC50_OVCAR3_6h
# T1 construct: High-Throughput Measurement of Cellular Endogenous CDK2; endogenous in cells; host or cells: OVCAR3
# Procedure, shortened: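 DC50 and Dmax were derived by four-parameter logistic fit of the […] TR-FRET ratio, scaled between DMSO (0% degradation) and lysis buffer (100%) controls. The ratio came from an HTRF total-CDK2 sandwich immunoassay on lysates of OVCAR3 cells given 0.03–1,000 nM compound for 6 hours.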
# CDK2 [2] = molecular target: T1, CDK2; assay: Inhibition of CDK2: phospho-Rb (S807/811) HTRF measurement in OVCAR3 cells, 24 h; format: cell-based; conditions: 24 h compound treatment, read-out: pRB_OVCAR3_24h
# Procedure, shortened: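 IC50 came from a four-parameter fit of DMSO-normalized TR-FRET ratios (665/620 nm) reporting phospho-Rb S807/811. Lysates were taken from OVCAR3 cultures treated 24 h with compound (0.3 to 10,000 nM) and incubated 4 h at room temperature with the antibody pair.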
Compound,DC50 (CDK2 [1]) [nM],IC50 (CDK2 [2]) [nM]
"Cn1nc(N2CCC(=O)NC2=O)c2ccc(C3CCN(CC4CCN(c5cc(S(=O)(=O)N6CCC(Nc7ncc(OC(F)F)cn7)CC6)ccc5C#N)CC4)CC3)c(F)c21 [Example 192, 4-((4-((5-(difluoromethoxy)pyrimidin-2-yl)amino)piperidin-1-yl)sulfonyl)-2-(4-((4-(3-(2,4-dioxotetrahydropyrimidin-1(2H)-yl)-7-fluoro-1-methyl-1H-indazol-6-yl)piperidin-1-yl)methyl)piperidin-1-yl)benzonitrile]",1 to 10,1 to 100
"N#Cc1ccc(S(=O)(=O)N2CCC(Nc3ncc(Cl)cn3)CC2)cc1N1CCC(CN2CCC(c3cccc4c3oc(=O)n4C3CCC(=O)NC3=O)CC2)CC1 (stereo not drawn) [Example 197, 4-((4-((5-chloropyrimidin-2-yl)amino)piperidin-1-yl)sulfonyl)-2-(4-((4-(3-(2,6-dioxopiperidin-3-yl)-2-oxo-2,3-dihydrobenzo[d]oxazol-7-yl)piperidin-1-yl)methyl)piperidin-1-yl)benzonitrile]",10 to 100,1 to 100
"N#Cc1ccc(S(=O)(=O)N2CCC(Nc3ncc(C(F)(F)F)cn3)CC2)cc1N1CCC(CN2CCC(c3cccc4c3oc(=O)n4C3CCC(=O)NC3=O)CC2)CC1 (stereo not drawn) [Example 198, 2-(4-((4-(3-(2,6-dioxopiperidin-3-yl)-2-oxo-2,3-dihydrobenzo[d]oxazol-7-yl)piperidin-1-yl)methyl)piperidin-1-yl)-4-((4-((5-(trifluoromethyl)pyrimidin-2-yl)amino)piperidin-1-yl)sulfonyl)benzonitrile]",1 to 10,1 to 100
"Cn1nc(N2CCC(=O)NC2=O)c2ccc(C3CCN(CC4CCN(c5cccc(S(=O)(=O)N6CCC(Nc7ncc(Br)cn7)CC6)c5)CC4)CC3)cc21 [Example 199, 1-(6-(1-((1-(3-((4-((5-bromopyrimidin-2-yl)amino)piperidin-1-yl)sulfonyl)phenyl)piperidin-4-yl)methyl)piperidin-4-yl)-1-methyl-1H-indazol-3-yl)dihydropyrimidine-2,4(1H,3H)-dione]",1 to 10,1 to 100
"O=C1CCC(n2c(=O)oc3c(C4CCN(CC5CCN(c6cccc(S(=O)(=O)N7CCC(Nc8ncc(C(F)(F)F)cn8)CC7)c6)CC5)CC4)cccc32)C(=O)N1 (stereo not drawn) [Example 201, 3-(2-oxo-7-(1-((1-(3-((4-((5-(trifluoromethyl)pyrimidin-2-yl)amino)piperidin-1-yl)sulfonyl)phenyl)piperidin-4-yl)methyl)piperidin-4-yl)benzo[d]oxazol-3(2H)-yl)piperidine-2,6-dione]",1 to 10,1 to 100
"Cn1c(=O)n(C2CCC(=O)NC2=O)c2cccc(N3CCN(CC4CCN(c5cc(S(=O)(=O)N6CCC(Nc7ncc(Cl)cn7)CC6)ccc5C#N)CC4)CC3)c21 (stereo not drawn) [Example 203, 4-((4-((5-chloropyrimidin-2-yl)amino)piperidin-1-yl)sulfonyl)-2-(4-((4-(1-(2,6-dioxopiperidin-3-yl)-3-methyl-2-oxo-2,3-dihydro-1H-benzo[d]imidazol-4-yl)piperazin-1-yl)methyl)piperidin-1-yl)benzonitrile]",1 to 10,1 to 100
"Cn1c(=O)n(C2CCC(=O)NC2=O)c2ccc(C3CCN(CC4CCN(c5cc(S(=O)(=O)N6CCC(Nc7ncc(Cl)cn7)CC6)ccc5C#N)CC4)CC3)cc21 (stereo not drawn) [Example 204, 4-((4-((5-chloropyrimidin-2-yl)amino)piperidin-1-yl)sulfonyl)-2-(4-((4-(1-(2,6-dioxopiperidin-3-yl)-3-methyl-2-oxo-2,3-dihydro-1H-benzo[d]imidazol-5-yl)piperidin-1-yl)methyl)piperidin-1-yl)benzonitrile]",1 to 10,1 to 100
"Cn1c(=O)n(C2CCC(=O)NC2=O)c2ccc(C3CCN(CC4CCN(c5cc(S(=O)(=O)N6CCC(Nc7ncc(C(F)(F)F)cn7)CC6)ccc5C#N)CC4)CC3)cc21 (stereo not drawn) [Example 205, 2-(4-((4-(1-(2,6-dioxopiperidin-3-yl)-3-methyl-2-oxo-2,3-dihydro-1H-benzo[d]imidazol-5-yl)piperidin-1-yl)methyl)piperidin-1-yl)-4-((4-((5-(trifluoromethyl)pyrimidin-2-yl)amino)piperidin-1-yl)sulfonyl)benzonitrile]",0.5 to 1,1 to 100
"Cn1nc(N2CCC(=O)NC2=O)c2ccc(C3CCN(CC4(C)CCN(c5cccc(S(=O)(=O)N6CCC(Nc7ncc(Cl)cn7)CC6)c5)CC4)CC3)cc21 [Example 206, 1-(6-(1-((1-(3-((4-((5-chloropyrimidin-2-yl)amino)piperidin-1-yl)sulfonyl)phenyl)-4-methylpiperidin-4-yl)methyl)piperidin-4-yl)-1-methyl-1H-indazol-3-yl)dihydropyrimidine-2,4(1H,3H)-dione]",10 to 100,1 to 100
"C=Cc1cnc(NC2CCN(S(=O)(=O)c3cccc(N4CCC(CN5CCC(c6ccc7c(N8CCC(=O)NC8=O)nn(C)c7c6)CC5)CC4)c3)CC2)nc1 [Example 208, 1-(1-methyl-6-(1-((1-(3-((4-((5-vinylpyrimidin-2-yl)amino)piperidin-1-yl)sulfonyl)phenyl)piperidin-4-yl)methyl)piperidin-4-yl)-1H-indazol-3-yl)dihydropyrimidine-2,4(1H,3H)-dione]",1 to 10,1 to 100
"Cn1c(=O)n(C2CCC(=O)NC2=O)c2cc(F)cc(C3CCN(CC4CCN(c5cc(S(=O)(=O)N6CCC(Nc7ncc(Cl)cn7)CC6)ccc5C#N)CC4)CC3)c21 (stereo not drawn) [Example 209, 4-((4-((5-chloropyrimidin-2-yl)amino)piperidin-1-yl)sulfonyl)-2-(4-((4-(1-(2,6-dioxopiperidin-3-yl)-6-fluoro-3-methyl-2-oxo-2,3-dihydro-1H-benzo[d]imidazol-4-yl)piperidin-1-yl)methyl)piperidin-1-yl)benzonitrile]",10 to 100,1 to 100
"Cn1nc(-n2ccc(=O)[nH]c2=O)c2ccc(C3CCN(CC4CCN(c5cccc(S(=O)(=O)N6CCC(Nc7ncc(C(F)(F)F)cn7)CC6)c5)CC4)CC3)cc21 [Example 211, 1-(1-methyl-6-(1-((1-(3-((4-((5-(trifluoromethyl)pyrimidin-2-yl)amino)piperidin-1-yl)sulfonyl)phenyl)piperidin-4-yl)methyl)piperidin-4-yl)-1H-indazol-3-yl)pyrimidine-2,4(1H,3H)-dione]",1000 to 5000,1 to 100
"Cn1nc(N2CCC(=O)NC2=O)c2ccc(C3CCN(CC4(O)CCN(c5cc(S(=O)(=O)N6CCC(Nc7ncc(Cl)cn7)CC6)ccc5C#N)CC4)CC3)cc21 [Example 214, 4-((4-((5-chloropyrimidin-2-yl)amino)piperidin-1-yl)sulfonyl)-2-(4-((4-(3-(2,4-dioxotetrahydropyrimidin-1(2H)-yl)-1-methyl-1H-indazol-6-yl)piperidin-1-yl)methyl)-4-hydroxypiperidin-1-yl)benzonitrile]",10 to 100,1 to 100
"Cn1c(=O)n(C2CCC(=O)NC2=O)c2ccc(F)c(C3CCN(CC4CCN(c5cc(S(=O)(=O)N6CCC(Nc7ncc(Cl)cn7)CC6)ccc5C#N)CC4)CC3)c21 (stereo not drawn) [Example 216, 4-((4-((5-chloropyrimidin-2-yl)amino)piperidin-1-yl)sulfonyl)-2-(4-((4-(1-(2,6-dioxopiperidin-3-yl)-5-fluoro-3-methyl-2-oxo-2,3-dihydro-1H-benzo[d]imidazol-4-yl)piperidin-1-yl)methyl)piperidin-1-yl)benzonitrile]",10 to 100,1 to 100
"Cn1c(=O)n(C2CCC(=O)NC2=O)c2cccc(N3CCN(CC4CCN(c5cc(S(=O)(=O)N6CCC(Nc7ncc(C(F)(F)F)cn7)CC6)ccc5C#N)CC4)CC3)c21 (stereo not drawn) [Example 217, 2-(4-((4-(1-(2,6-dioxopiperidin-3-yl)-3-methyl-2-oxo-2,3-dihydro-1H-benzo[d]imidazol-4-yl)piperazin-1-yl)methyl)piperidin-1-yl)-4-((4-((5-(trifluoromethyl)pyrimidin-2-yl)amino)piperidin-1-yl)sulfonyl)benzonitrile]",10 to 100,1 to 100
"Cn1c(=O)n(C2CCC(=O)NC2=O)c2c(F)ccc(C3CCN(CC4CCN(c5cc(S(=O)(=O)N6CCC(Nc7ncc(Cl)cn7)CC6)ccc5C#N)CC4)CC3)c21 (stereo not drawn) [Example 220, 4-((4-((5-chloropyrimidin-2-yl)amino)piperidin-1-yl)sulfonyl)-2-(4-((4-(1-(2,6-dioxopiperidin-3-yl)-7-fluoro-3-methyl-2-oxo-2,3-dihydro-1H-benzo[d]imidazol-4-yl)piperidin-1-yl)methyl)piperidin-1-yl)benzonitrile]",10 to 100,1 to 100
"O=C1CCN(c2noc3cc(C4CCN(CC5CCN(c6cccc(S(=O)(=O)N7CCC(Nc8ncc(Cl)cn8)CC7)c6)CC5)CC4)ccc23)C(=O)N1 [Example 221, 1-(6-(1-((1-(3-((4-((5-chloropyrimidin-2-yl)amino)piperidin-1-yl)sulfonyl)phenyl)piperidin-4-yl)methyl)piperidin-4-yl)benzo[d]isoxazol-3-yl)dihydropyrimidine-2,4(1H,3H)-dione]",1 to 10,1 to 100
"O=C1CCN(c2noc3cc(C4CCN(CC5CCN(c6cccc(S(=O)(=O)N7CCC(Nc8ncc(C(F)(F)F)cn8)CC7)c6)CC5)CC4)ccc23)C(=O)N1 [Example 222, 1-(6-(1-((1-(3-((4-((5-(trifluoromethyl)pyrimidin-2-yl)amino)piperidin-1-yl)sulfonyl)phenyl)piperidin-4-yl)methyl)piperidin-4-yl)benzo[d]isoxazol-3-yl)dihydropyrimidine-2,4(1H,3H)-dione]",1 to 10,1 to 100
